Data set [1] is filed under the species Mus musculus. Kind of data set: Immunosuppressive activity in OT2 mouse CD4-positive T cells derived OVA(323 to 339)-activated Th-differentiating media cultured Th1 cells assessed as reduction in pDBU/ionomycin-stimulated IFNgamma production up to 10 uM treated last 2 days of 5 days differentiation followed by pDBU/ionomycin stimulation on day 5 measured after 4 hrs by anti-mouse IFNgamma-Pacific Blue/IL-2-APC staining based flow cytometry. It counts as functional. For orientation: In flow cytometry, cells or beads pass a laser one at a time.

The species named for data set [2] is Mus musculus. Description: Immunosuppressive activity in OT2 mouse CD4-positive T cells derived OVA(323 to 339)-activated Th-differentiating media cultured Th17 cells assessed as reduction in pDBU/ionomycin-stimulated […] production up to 10 uM treated last 2 days of 5 days differentiation followed by pDBU/ionomycin stimulation on day 5 measured after 4 hrs by anti-mouse IL17A-APC staining based flow cytometry. It counts as functional.

Data set [3] is filed under the species Mus musculus. Description: Immunosuppressive activity in OT2 mouse CD4-positive T cells derived OVA(323 to 339)-activated Th-differentiating media cultured Th1 cells assessed as reduction in pDBU/ionomycin-stimulated IFNgamma production treated last 2 days of 5 days differentiation followed by pDBU/ionomycin stimulation on day 5 measured after 4 hrs by anti-mouse IFNgamma-Pacific Blue/IL-2-APC staining based flow cytometry. It counts as functional.

The nature of data set [4]: Immunosuppressive activity in OT2 mouse CD4-positive T cells derived OVA(323 to 339)-activated Th-differentiating media cultured Th1 cells assessed as reduction in pDBU/ionomycin-stimulated IFNgamma production at late stage by measuring INFgamma level at 10 uM treated last 2 days of 5 days differentiation followed by pDBU/ionomycin stimulation on day 5 measured after 4 hrs by anti-mouse IFNgamma-Pacific Blue/IL-2-APC staining based flow cytometry (reference value: 4.34%). It counts as functional. The arrangement: scale not given: the % may be the effect or the level left.

Data set [5] can be described thus: Immunosuppressive activity in OT2 mouse CD4-positive T cells derived OVA(323 to 339)-activated Th-differentiating media cultured Th1 cells assessed as reduction in pDBU/ionomycin-stimulated IFNgamma production at late stage by measuring INFgamma level at 100 nM treated last 2 days of 5 days differentiation followed by pDBU/ionomycin stimulation on day 5 measured after 4 hrs by anti-mouse IFNgamma-Pacific Blue/IL-2-APC staining based flow cytometry (reference value: 4.34%). It counts as functional. The arrangement: scale not given: the % may be the effect or the level left.

Data set [6] can be described thus: Immunosuppressive activity in OT2 mouse CD4-positive T cells derived OVA(323 to 339)-activated Th-differentiating media cultured Th17 cells assessed as reduction in pDBU/ionomycin-stimulated 1L17A production by measuring IL17A level at 10 uM treated last 2 days of 5 days differentiation followed by pDBU/ionomycin stimulation on day 5 measured after 4 hrs by anti-mouse IL17A-APC staining based flow cytometry (reference value: 1.44%). It counts as functional. The arrangement: scale not given: the % may be the effect or the level left.

Data set [7] is described as follows: Immunosuppressive activity in OT2 mouse CD4-positive T cells derived OVA(323 to 339)-activated Th-differentiating media cultured Th17 cells assessed as reduction in pDBU/ionomycin-stimulated 1L17A production by measuring IL17A level at 100 nM treated last 2 days of 5 days differentiation followed by pDBU/ionomycin stimulation on day 5 measured after 4 hrs by anti-mouse IL17A-APC staining based flow cytometry (reference value: 1.44%). The arrangement: scale not given: the % may be the effect or the level left. It counts as functional.

Data set [8] in a line: Immunosuppressive activity in OT2 mouse CD4-positive T cells derived OVA(323 to 339)-activated Th-differentiating media cultured Th1 cells assessed as reduction in pDBU/ionomycin-stimulated IFNgamma production at early stage by measuring INFgamma level at 10 uM treated last 2 days of 5 days differentiation followed by pDBU/ionomycin stimulation on day 5 measured after 4 hrs by anti-mouse IFNgamma-Pacific Blue/IL-2-APC staining based flow cytometry (reference value: 57.3%). It counts as functional. The arrangement: scale not given: the % may be the effect or the level left.

Data set [9] can be described thus: Immunosuppressive activity in OT2 mouse CD4-positive T cells derived OVA(323 to 339)-activated Th-differentiating media cultured Th1 cells assessed as reduction in pDBU/ionomycin-stimulated IFNgamma production at early stage by measuring INFgamma level at 100 nM treated last 2 days of 5 days differentiation followed by pDBU/ionomycin stimulation on day 5 measured after 4 hrs by anti-mouse IFNgamma-Pacific Blue/IL-2-APC staining based flow cytometry (reference value: 57.3%). The arrangement: scale not given: the % may be the effect or the level left. It counts as functional.

Data set [10] can be described thus: Cytotoxicity against OT2 mouse CD4-positive T cells assessed as cell viability at 10 uM measured after 48 hrs by live/dead viability staining based flow cytometry (reference value: 57.2%). To be noted: read-out: Activity.
The nature of data set [11]: Cytotoxicity against OT2 mouse CD4-positive T cells assessed as cell viability at 100 nM measured after 48 hrs by live/dead viability staining based flow cytometry (reference value: 57.2%). To be noted: read-out: Activity.
The nature of data set [12]: Cytotoxicity against OT1 mouse CD8-positive T cells assessed as cell viability at 10 uM measured after 48 hrs by live/dead viability staining based flow cytometry (reference value: 39.5%). To be noted: read-out: Activity.
Data set [13] in a line: Cytotoxicity against OT1 mouse CD8-positive T cells assessed as cell viability at 100 nM measured after 48 hrs by live/dead viability staining based flow cytometry (reference value: 39.5%). As to conditions: read-out: Activity.
A short description of data set [14]: Toxicity in MOG/CFA/Ptx-induced C57B/6 mouse model of experimental autoimmune encephalitis assessed as adverse changes at 4 umol, ip administered on day 4, 6, and 8 starting from 2 days post-disease induction and measured up to 50 days. It counts as organism-based. As to conditions: in vivo.
Data set [15] deals with Mus musculus. Description: Immunosuppressive activity in MOG/CFA/Ptx-induced C57B/6 mouse model of experimental autoimmune encephalitis assessed as decrease in clinical symptoms at 4 umol, ip administered on day 4, 6, and 8 starting from 2 days post-disease induction and measured daily up to 50 days. It counts as functional, organism-based.
Data set [16] concerns Mus musculus. Description: Immunosuppressive activity in MOG/CFA/Ptx-induced C57B/6 mouse model of experimental autoimmune encephalitis assessed as time of disease onset at 4 umol, ip administered on day 4, 6, and 8 starting from 2 days post-disease induction and measured daily up to 50 days. It counts as functional.
In data set [17] the test system is Mus musculus. Kind of data set: Immunosuppressive activity in MOG/CFA/Ptx-induced C57B/6 mouse model of experimental autoimmune encephalitis assessed as change in T cell composition at 4 umol, ip administered on day 4 and 6 starting from 2 days post-disease induction and measured on day 7 post-last disease induction by immunostaining-based flow cytometry. It counts as functional, organism-based.

Data set [18] deals with Mus musculus. Kind of data set: Immunosuppressive activity in MOG/CFA/Ptx-induced C57B/6 mouse model of experimental autoimmune encephalitis assessed as change in dendritic cell composition at 4 umol, ip administered on day 4 and 6 starting from 2 days post-disease induction and measured on day 7 post-last disease induction by immunostaining-based flow cytometry. It counts as functional, organism-based.

Data set [19] relates to Mus musculus. Description: Immunosuppressive activity in MOG/CFA/Ptx-induced C57B/6 mouse model of experimental autoimmune encephalitis assessed as change in regulatory T cell composition at 4 umol, ip administered on day 4 and 6 starting from 2 days post-disease induction and measured on day 7 post-last disease induction by immunostaining-based flow cytometry. It counts as functional, organism-based.

Data set [20] concerns Mus musculus. Description: Immunosuppressive activity in MOG/CFA/Ptx-induced C57B/6 mouse model of experimental autoimmune encephalitis assessed as change in macrophage composition at 4 umol, ip administered on day 4 and 6 starting from 2 days post-disease induction and measured on day 7 post-last disease induction by immunostaining-based flow cytometry. It counts as functional, organism-based.

In data set [21] the test system is Mus musculus. Description: Immunosuppressive activity in MOG/CFA/Ptx-induced C57B/6 mouse model of experimental autoimmune encephalitis assessed as change in neutrophil composition at 4 umol, ip administered on day 4 and 6 starting from 2 days post-disease induction and measured on day 7 post-last disease induction by immunostaining-based flow cytometry. It counts as functional, organism-based.

Data set [22] concerns Mus musculus. Description: Immunosuppressive activity in MOG/CFA/Ptx-induced C57B/6 mouse model of experimental autoimmune encephalitis assessed as change in granulocytic myeloid-derived suppressor cell composition at 4 umol, ip administered on day 4 and 6 starting from 2 days post-disease induction and measured on day 7 post-last disease induction by immunostaining-based flow cytometry. It counts as functional, organism-based.

For data set [23], the system named is Mus musculus. Description: Immunosuppressive activity in MOG/CFA/Ptx-induced C57B/6 mouse model of experimental autoimmune encephalitis assessed as live cells at 4 umol, ip administered on day 4 and 6 starting from 2 days post-disease induction and measured on day 7 post-last disease induction by live/dead staining-based flow cytometry (reference value: 87.5%). It counts as functional.

Data set [24] has as its system Mus musculus. Kind of data set: Immunosuppressive activity in MOG/CFA/Ptx-induced C57B/6 mouse model of experimental autoimmune encephalitis assessed as CD11b+ F4/80+ cells at 4 umol, ip administered on day 4 and 6 starting from 2 days post-disease induction and measured on day 7 post-last disease induction by immunostaining-based flow cytometry (reference value: 15%). It counts as functional.

The subject of data set [25] is Mus musculus. Kind of data set: Immunosuppressive activity in MOG/CFA/Ptx-induced C57B/6 mouse model of experimental autoimmune encephalitis assessed as macrophage cells at 4 umol, ip administered on day 4 and 6 starting from 2 days post-disease induction and measured on day 7 post-last disease induction by immunostaining-based flow cytometry (reference value: 10.5%). It counts as functional.

Data set [26] deals with Mus musculus. Kind of data set: Immunosuppressive activity in MOG/CFA/Ptx-induced C57B/6 mouse model of experimental autoimmune encephalitis assessed as granulocytic myeloid-derived suppressor cells at 4 umol, ip administered on day 4 and 6 starting from 2 days post-disease induction and measured on day 7 post-last disease induction by immunostaining-based flow cytometry (reference value: 28.1%). It counts as functional.

Data set [27] concerns Mus musculus. Kind of data set: Immunosuppressive activity in MOG/CFA/Ptx-induced C57B/6 mouse model of experimental autoimmune encephalitis assessed as inflammatory neutrophil cells at 4 umol, ip administered on day 4 and 6 starting from 2 days post-disease induction and measured on day 7 post-last disease induction by immunostaining-based flow cytometry (reference value: 35.2%). It counts as functional.

Active and inactive are the calls of the source. No cut-off for these calls is given here.

Consider `CC[C@@H]1C[C@@]2(C)[C@@H]3CCC[C@@H](Cc4c(O)c(C)c(C)oc4=O)[C@@]3(C)CC[C@@H]2O1`, for which the outcome in the data set listed under Mus musculus [1] and in the data set listed under Mus musculus [2] was Active.
Consider `C=C1CC[C@H]2[C@]3(C)C[C@@H](C=C(C)C)O[C@H]3CC[C@]2(C)[C@@H]1Cc1ccccc1`, for which the result in the data set listed under Mus musculus [1] and in the data set filed under Mus musculus [2] was Active.
With `C=C1CC[C@H]2[C@]3(C)C[C@@H](C=C(C)C)O[C@H]3CC[C@]2(C)[C@@H]1Cc1c(O)c(C)c(C)oc1=O` [SUBGLUTINOL A], the Activity entry in the data set filed under Mus musculus [3] is “Dose-dependent effect”; in data set [4], 0%; in data set [5] it was 0%; in [6], 0.064%; in [7], 0.017%; in data set [8] it was 1.54%. In data set [9], the Activity is listed as 0.84%. Further, the results for the viability at 48 h, 10 µM in [10] and in data set [12] were 24.4% and 7.19%, respectively. In addition, the viability at 48 h, 0.1 µM was determined as 46% in data set [11] and 14.5% in data set [13].
As to `CC[C@@H]1C[C@@]2(C)[C@@H]3CCC[C@H](Cc4c(O)c(C)c(C)oc4=O)[C@@]3(C)CC[C@@H]2O1`, the outcome in the data set listed under Mus musculus [1] and in the data set listed under Mus musculus [2] was Active.
As to `Cc1oc(=O)c(C[C@@H]2CCC[C@H]3CCCC[C@@]32C)c(O)c1C`, the Activity is listed as 0% in [4]; 1.03% in data set [5]; 2.01% in data set [6]; 1.33% in [7]; 0.47% in [8]; 18.7% in data set [9]. Besides, the Activity entry in data set [14] was “Non-Toxic”; in the data set on Mus musculus [23], 88.8%; in the data set with Mus musculus [24], 11%; in the data set with Mus musculus [25], 4%; with Mus musculus [26] it was 2.41%; in the data set on Mus musculus [27], 74.7%. The viability at 48 h, 10 µM in data set [10] was 41.5%; in data set [12], 8.85%. Further, the viability at 48 h, 0.1 µM was found to be 60.6% in data set [11] and 42.6% in [13]. In addition, the outcome in the data set with Mus musculus [15], in the data set with Mus musculus [17], in the data set with Mus musculus [18], with Mus musculus [19], in the data set on Mus musculus [20] and in the data set on Mus musculus [21] was inactive. Further, the outcome with Mus musculus [22] was inactive. Further, the Time in the data set on Mus musculus [16] stood at 15 days.
With `CC(C)=CC1Cc2c(ccc3c(Cc4c(O)c(C)c(C)oc4=O)cccc23)O1` (stereo not given), the result in the data set filed under Mus musculus [1] and in the data set listed under Mus musculus [2] was Active.
Regarding `Cc1oc(=O)c(C[C@H]2CCC[C@H]3CCCC[C@@]32C)c(O)c1C`, the result in the data set filed under Mus musculus [1] and in the data set filed under Mus musculus [2] was Active.

(Values after ChEMBL document CHEMBL4376842, “Synthesis and Biological Evaluation of Subglutinol Analogs for Immunomodulatory Agents” (J Med Chem, 2020).)
